From ChEMBL document CHEMBL3046600, “1-Phenoxyalkyl-4-[(N,N-disubstitutedamino)alkyl]piperazine derivatives as non-imidazole histamine H3-antagonists” (Med Chem Res, 2013)

Key:
Details in all cases: read-out: pA2 (converted)
Histamine H3 receptor [1] = target: T1, Histamine H3 receptor (Cavia porcellus, UniProt Q9JI35); test: Antagonist activity at histamine H3 receptor in Cavia porcellus (guinea pig) jejunum assessed as inhibition of electrically-induced contraction
Histamine H3 receptor [2] = target: T1, Histamine H3 receptor; test: Antagonist activity at histamine H3 receptor in Cavia porcellus (guinea pig) ileum assessed as inhibition of electrically-induced contraction; format: tissue-based
Histamine H1 receptor = Histamine H1 receptor (Cavia porcellus, UniProt P31389); test: Antagonist activity at histamine H1 receptor in Cavia porcellus (guinea pig) ileum assessed as inhibition of histamine-induced contraction
Sequence of Histamine H1 receptor (P31389 whole entry): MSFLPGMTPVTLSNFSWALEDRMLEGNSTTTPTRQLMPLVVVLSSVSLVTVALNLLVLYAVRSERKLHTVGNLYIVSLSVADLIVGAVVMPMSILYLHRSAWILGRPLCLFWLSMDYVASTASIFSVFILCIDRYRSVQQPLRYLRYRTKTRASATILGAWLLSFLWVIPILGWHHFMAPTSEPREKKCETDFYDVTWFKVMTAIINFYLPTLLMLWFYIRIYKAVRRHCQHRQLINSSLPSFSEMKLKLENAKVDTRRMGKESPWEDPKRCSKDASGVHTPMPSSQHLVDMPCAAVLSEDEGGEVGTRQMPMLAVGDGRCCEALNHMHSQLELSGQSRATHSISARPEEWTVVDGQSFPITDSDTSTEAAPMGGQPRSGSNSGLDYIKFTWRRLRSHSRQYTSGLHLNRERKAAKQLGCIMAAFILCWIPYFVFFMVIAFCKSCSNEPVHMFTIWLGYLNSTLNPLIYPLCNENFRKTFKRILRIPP

T1 sequence (Q9JI35 whole entry): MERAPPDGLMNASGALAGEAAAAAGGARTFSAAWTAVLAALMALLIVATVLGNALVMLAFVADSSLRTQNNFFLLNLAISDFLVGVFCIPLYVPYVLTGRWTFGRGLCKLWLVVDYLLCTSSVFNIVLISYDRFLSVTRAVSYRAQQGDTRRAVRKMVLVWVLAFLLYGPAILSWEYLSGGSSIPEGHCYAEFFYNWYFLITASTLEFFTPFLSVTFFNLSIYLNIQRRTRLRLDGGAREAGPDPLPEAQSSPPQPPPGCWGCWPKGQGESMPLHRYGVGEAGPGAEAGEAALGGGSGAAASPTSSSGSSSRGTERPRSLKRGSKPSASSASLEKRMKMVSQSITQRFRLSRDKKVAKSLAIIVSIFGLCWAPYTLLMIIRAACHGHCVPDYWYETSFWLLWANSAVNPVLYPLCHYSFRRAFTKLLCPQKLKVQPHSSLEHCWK

Row | Structure (SMILES) | Kb (Histamine H3 receptor [1]) [nM] | Kb (Histamine H3 receptor [2]) [nM] | Kb (Histamine H1 receptor) [nM]
1 | NCCCN1CCN(CCCCCCCCOc2ccccc2)CC1 | 145 |  | 
2 | CN(CCCCN1CCN(CCCCCCCOc2ccccc2)CC1)C(=O)c1ccccc1 |  | 105 | 
3 | NCCCN1CCN(CCOc2ccccc2)CC1 | 178 |  | 
4 | NCCCN1CCN(CCCCCOc2ccccc2)CC1 | 158 |  | 
5 | NCCCN1CCN(CCCCCCCCCOc2ccccc2)CC1 | 102 |  | 
6 | NCCCN1CCN(CCCCOc2ccccc2)CC1 | 240 |  | 
7 | NCCN1CCN(CCCCCCCOc2ccccc2)CC1 | 380 |  | 
8 | NCCCCCCCN1CCN(CCCCCCCOc2ccccc2)CC1 | 214 |  | 
9 | S=C(NC1CCCCC1)N1CCC(c2cnc[nH]2)CC1 [THIOPERAMIDE] | 2.19 |  | 
10 | NCCCN1CCN(CCCCCCCOc2ccccc2)CC1 | 91.2 |  | 
11 | NCCCCN1CCN(CCCCCCCOc2ccccc2)CC1 | 66.1 |  | > 100000
12 | NCCCN1CCN(CCCCCCOc2ccccc2)CC1 | 191 |  | 
13 | NCCCCCN1CCN(CCCCCCCOc2ccccc2)CC1 | 102 |  | 
14 | NCCCCCCN1CCN(CCCCCCCOc2ccccc2)CC1 | 214 |  | 
15 | CN(CCCCN1CCN(CCCCCCCOc2ccccc2)CC1)C(=O)C(F)(F)F |  | 100 | 
16 | NCCCN1CCN(CCCOc2ccccc2)CC1 | 513 |  | 
17 | CC(=O)N(C)CCCCN1CCN(CCCCCCCOc2ccccc2)CC1 |  | 69.2 | 
